Laboratory results taken from ChEMBL document CHEMBL6109103, “Dodecapeptides derived from human cathelicidin with potent activity against carbapenem-resistant Acinetobacter baumannii” (Eur J Med Chem, 2025).
Values after ≈ are worked out from the molar mass of the structure shown. Active and inactive are the calls of the source. No cut-off for these calls is given here. Positions of bridges follow the written chain, without caps; N, C: chain ends. Non-standard residues stand in square brackets, D forms with d. Residues, ends and D or L forms follow the SMILES beside them. S5 = C=CCCC[C@](C)(N)C(=O)O

Columns and labels:
[1] = Toxicity in BALB/c mouse assessed as heart damage at 16 mg/kg, ip measured for 3 days by H and E staining based analysis; format: organism-based; conditions: in vivo, 72 h, time 3 day
[2] = Toxicity in BALB/c mouse assessed as spleen damage at 16 mg/kg, ip measured for 3 days by H and E staining based analysis; format: organism-based; conditions: in vivo, 72 h, time 3 day
[3] = Toxicity in BALB/c mouse assessed as lung damage at 16 mg/kg, ip measured for 3 days by H and E staining based analysis; format: organism-based; conditions: in vivo, 72 h, time 3 day
[4] = Toxicity in BALB/c mouse assessed as liver damage at 16 mg/kg, ip measured for 3 days by H and E staining based analysis; format: organism-based; conditions: in vivo, 72 h, time 3 day
Acinetobacter baumannii [5] = assay: Induction of morphological changes in carbapenem-resistant Acinetobacter baumannii at 6.25 microg/ml measured for 24 hrs by SEM analysis; format: functional, organism-based; conditions: dose 6.25 µg/ml
Lipoteichoic acid = assay: Binding affinity to […] bacterial Lipoteichoic acid assessed as dissociation constant by BLI analysis; design: species or system Bacteria
HaCaT = assay: Cytotoxicity against human HaCaT cells assessed as cell death up to 100 microg/ml measured upto 24 hrs; format: toxicity, cell-based; conditions: dose < 100 µg/ml
Acinetobacter baumannii [6] = assay: Antibacterial activity against multidrug-resistant Acinetobacter baumannii assessed as inhibition of bacterial growth incubated for 24 hrs by broth dilution assay; format: functional
Staphylococcus aureus [7] = assay: Antibacterial activity against Methicillin-resistant Staphylococcus aureus ATCC 43300 assessed as inhibition of bacterial growth incubated for 24 hrs by broth dilution assay; format: functional
Acinetobacter baumannii [8] = assay: Synergistic antibacterial activity against carbapenem-resistant Acinetobacter baumannii clinical isolate 6 in presence of CTX by microdilution checkerboard assay; format: functional, organism-based
[9] = Toxicity in BALB/c mouse assessed as animal survival at 1.25 mg/kg, NAS measured for 5 days; format: organism-based; conditions: in vivo, inhaled or intranasal, time 5 day
[10] = Toxicity in BALB/c mouse assessed as animal survival at 4 to 64 mg/kg, ip measured for 5 days; format: organism-based; conditions: in vivo, 120 h, dose 4-64 mg/kg, time 5 day
[11] = Toxicity in BALB/c mouse assessed as heart damage at 64 mg/kg, ip measured for 3 days by H and E staining based analysis; format: organism-based; conditions: in vivo, 72 h, time 3 day
Acinetobacter baumannii [12] = assay: Antibacterial activity against carbapenem-resistant Acinetobacter baumannii clinical isolate 3 assessed as inhibition of bacterial growth incubated for 24 hrs by broth dilution assay; format: functional
Acinetobacter baumannii [13] = assay: Synergistic antibacterial activity against carbapenem-resistant Acinetobacter baumannii clinical isolate 6 in presence of tetracycline by microdilution checkerboard assay; format: functional, organism-based
Acinetobacter baumannii [14] = assay: Antibacterial activity against Acinetobacter baumannii ATCC 19606 assessed as inhibition of bacterial growth incubated for 24 hrs by broth dilution assay; format: functional
Pseudomonas aeruginosa = assay: Antibacterial activity against human Pseudomonas aeruginosa assessed as inhibition of bacterial growth; format: functional, organism-based
[15] = Toxicity in BALB/c mouse assessed as spleen damage at 64 mg/kg, ip measured for 3 days by H and E staining based analysis; format: organism-based; conditions: in vivo, 72 h, time 3 day
Acinetobacter baumannii [16] = assay: Antibacterial activity against carbapenem-resistant Acinetobacter baumannii clinical isolate 8 assessed as inhibition of bacterial growth incubated for 24 hrs by broth dilution assay; format: functional
[17] = Hemolytic activity at mouse RBC assessed as hemolysis; format: toxicity, cell-based, Erythrocyte; conditions: mouse red blood cells, read-out: Activity
Escherichia coli = assay: Antibacterial activity against human Escherichia coli assessed as inhibition of bacterial growth; format: functional, organism-based
[18] = Toxicity in BALB/c mouse assessed as lung damage at 64 mg/kg, ip measured for 3 days by H and E staining based analysis; format: organism-based; conditions: in vivo, 72 h, time 3 day
Acinetobacter baumannii [19] = assay: Antibacterial activity against carbapenem-resistant Acinetobacter baumannii clinical isolate 1 assessed as inhibition of bacterial growth incubated for 24 hrs by broth dilution assay; format: functional
Acinetobacter baumannii [20] = assay: Antibacterial activity against carbapenem-resistant Acinetobacter baumannii clinical isolate 2 assessed as inhibition of bacterial growth incubated for 24 hrs by broth dilution assay; format: functional
Acinetobacter baumannii [21] = assay: Antibacterial activity against carbapenem-resistant Acinetobacter baumannii clinical isolate 6 infected in BALB/c mouse assessed as survival rate at 1.25 mg/kg, NAS administered once a day for 3 days; format: functional; conditions: 72 h, time 3 day
Acinetobacter baumannii [22] = assay: Antibacterial activity against carbapenem-resistant Acinetobacter baumannii clinical isolate 7 assessed as inhibition of bacterial growth incubated for 24 hrs by broth dilution assay; format: functional
[23] = Toxicity in BALB/c mouse assessed as liver damage at 64 mg/kg, ip measured for 3 days by H and E staining based analysis; format: organism-based; conditions: in vivo, 72 h, time 3 day
[24] = Binding affinity to gram negative bacterial lipid II assessed as dissociation constant by BLI analysis; design: species or system Bacteria
proteinase K = assay: Proteolytic stability assessed as proteinase K (unknown origin)-mediated drug degradation at 500 microg/ml measured for 20 mins by LC-MS analysis; format: ADME, Homo sapiens; conditions: at 500 µg/mL, read-out: Drug degradation
Staphylococcus aureus [25] = assay: Antibacterial activity against Staphylococcus aureus […] assessed as inhibition of bacterial growth incubated for 24 hrs by broth dilution assay; format: functional
Acinetobacter baumannii [26] = assay: Antibacterial activity against carbapenem-resistant Acinetobacter baumannii clinical isolate 6 assessed as inhibition of bacterial growth incubated for 24 hrs by broth dilution assay; format: functional
Acinetobacter baumannii [27] = assay: Antibacterial activity against carbapenem-resistant Acinetobacter baumannii clinical isolate 4 assessed as inhibition of bacterial growth incubated for 24 hrs by broth dilution assay; format: functional
Acinetobacter baumannii [28] = assay: Antibacterial activity against carbapenem-resistant Acinetobacter baumannii clinical isolate 5 assessed as inhibition of bacterial growth incubated for 24 hrs by broth dilution assay; format: functional
[29] = Toxicity in BALB/c mouse assessed as kidney damage at 64 mg/kg, ip measured for 3 days by H and E staining based analysis; format: organism-based; conditions: in vivo, 72 h, time 3 day
A549 = assay: Cytotoxicity against human A549 cells assessed as cell death up to 50 microg/ml measured up to 24 hrs; format: toxicity, cell-based; conditions: a549, 24 h, up to 50 µg/mL
HUVEC = assay: Cytotoxicity against HUVEC cells assessed as cell death up to 50 microg/ml measured up to 24 hrs; format: toxicity, cell-based; conditions: human, up to 50 µg/mL

## CC(C)CCCCC(=O)N[C@@H](CCN)C(=O)N[C@H](C(=O)N[C@@H](CCN)C(=O)N[C@H]1CCNC(=O)[C@H]([C@@H](C)O)NC(=O)[C@H](CCN)NC(=O)[C@H](CCN)NC(=O)[C@H](CC(C)C)NC(=O)[C@@H](Cc2ccccc2)NC(=O)[C@H](CCN)NC1=O)[C@@H](C)O.CC[C@H](C)CCCCC(=O)N[C@@H](CCN)C(=O)N[C@H](C(=O)N[C@@H](CCN)C(=O)N[C@H]1CCNC(=O)[C@H]([C@@H](C)O)NC(=O)[C@H](CCN)NC(=O)[C@H](CCN)NC(=O)[C@H](CC(C)C)NC(=O)[C@@H](Cc2ccccc2)NC(=O)[C@H](CCN)NC1=O)[C@@H](C)O (HELM PEPTIDE1{[CC[C@H](C)CCCCC(=O)[*:2]].[Dab].T.[Dab].[Dab].[Dab].[dF].L.[Dab].[Dab].T}$PEPTIDE1,PEPTIDE1,5:R3-11:R2$$$V2.0)
[1]
  Activity: Non-toxic
[2]
  Activity: Non-toxic
[3]
  Activity: Non-toxic
[4]
  Activity: Non-toxic

## CC[C@H](C)[C@H](NC(=O)[C@H](CCCNC(=N)N)NC(=O)[C@@H](N)CCCCN)C(=O)N[C@@]1(C)CCC/C=C\CCC[C@@](C)(C(=O)N[C@H](C(=O)N[C@@H](Cc2ccccc2)C(=O)N[C@@H](CC(C)C)C(=O)N[C@@H](CCCNC(=N)N)C(=O)O)[C@@H](C)CC)NC(=O)[C@H]([C@@H](C)CC)NC(=O)[C@H](CCCNC(=N)N)NC(=O)[C@H](CCCNC(=N)N)NC1=O (H-KRI[S5]RRI[S5]IFLR-OH; staple (Z) 4-8)
Acinetobacter baumannii [5]
  Activity: Active
Lipoteichoic acid
  Kd: 48.9 nM
HaCaT
  Activity: Non-toxic
Acinetobacter baumannii [6]
  MIC: 5 µg/mL (≈ 3.08 µM)
Staphylococcus aureus [7]
  MIC: 80 µg/mL (≈ 49.3 µM)
Acinetobacter baumannii [8]
  Activity: Active
[9]
  survival at 120 h: 70%
[10]
  Activity: Non-toxic
[11]
  Activity: Non-toxic
Acinetobacter baumannii [12]
  MIC: 5 µg/mL (≈ 3.08 µM)
Acinetobacter baumannii [13]
  Activity: Active
Acinetobacter baumannii [14]
  MIC: 5 µg/mL (≈ 3.08 µM)
Pseudomonas aeruginosa
  Activity: Active
[15]
  Activity: Non-toxic
Acinetobacter baumannii [16]
  MIC: 5 µg/mL (≈ 3.08 µM)
[17]
  hemolysis: < 1%
Escherichia coli
  Activity: Active
[18]
  Activity: Non-toxic
Acinetobacter baumannii [19]
  MIC: 5 µg/mL (≈ 3.08 µM)
Acinetobacter baumannii [20]
  MIC: 10 µg/mL (≈ 6.17 µM)
Acinetobacter baumannii [21]
  survival at 1.25 mg/kg: 50%
Acinetobacter baumannii [22]
  MIC: 20 µg/mL (≈ 12.3 µM)
[23]
  Activity: Non-toxic
[24]
  Kd: 5.9 nM
Proteinase K
  metabolised at 20 min, 500 microg/ml: 17.8%
Staphylococcus aureus [25]
  MIC: 80 µg/mL (≈ 49.3 µM)
Acinetobacter baumannii [26]
  MIC: 2.5 µg/mL (≈ 1.54 µM)
Acinetobacter baumannii [27]
  MIC: 10 µg/mL (≈ 6.17 µM)
Acinetobacter baumannii [28]
  MIC: 5 µg/mL (≈ 3.08 µM)
[29]
  Activity: Non-toxic

## CC[C@H](C)[C@H](NC(=O)[C@H](CCCCN)NC(=O)[C@H](CCC(=O)O)NC(=O)[C@H](CCCCN)NC(=O)[C@H](CO)NC(=O)[C@H](CCCCN)NC(=O)[C@H](CCCNC(=N)N)NC(=O)[C@H](Cc1ccccc1)NC(=O)[C@H](Cc1ccccc1)NC(=O)[C@H](CC(=O)O)NC(=O)CNC(=O)[C@H](CC(C)C)NC(=O)[C@@H](N)CC(C)C)C(=O)NCC(=O)N[C@@H](CCCCN)C(=O)N[C@@H](CCC(=O)O)C(=O)N[C@@H](Cc1ccccc1)C(=O)N[C@@H](CCCCN)C(=O)N[C@@H](CCCNC(=N)N)C(=O)N[C@H](C(=O)N[C@H](C(=O)N[C@@H](CCC(N)=O)C(=O)N[C@@H](CCCNC(=N)N)C(=O)N[C@H](C(=O)N[C@@H](CCCCN)C(=O)N[C@@H](CC(=O)O)C(=O)N[C@@H](Cc1ccccc1)C(=O)N[C@@H](CC(C)C)C(=O)N[C@@H](CCCNC(=N)N)C(=O)N[C@@H](CC(N)=O)C(=O)N[C@@H](CC(C)C)C(=O)N[C@H](C(=O)N1CCC[C@H]1C(=O)N[C@@H](CCCNC(=N)N)C(=O)N[C@H](C(=O)N[C@@H](CCC(=O)O)C(=O)N[C@@H](CO)C(=O)O)[C@@H](C)O)C(C)C)[C@@H](C)CC)C(C)C)[C@@H](C)CC [CATHELICIDIN]
A549
  Activity: 29%
Acinetobacter baumannii [6]
  MIC: 10 µg/mL (≈ 2.23 µM)
Staphylococcus aureus [7]
  MIC: 320 µg/mL (≈ 71.2 µM)
Acinetobacter baumannii [14]
  MIC: 40 µg/mL (≈ 8.9 µM)
Staphylococcus aureus [25]
  MIC: > 320 µg/mL
HUVEC
  Activity: 29%
